Data from US20250115598A1 (Anaxis Pharma Pty Ltd, priority 2021, published 2025).

Biological target: human MLKL (full length) (Homo sapiens (Human), UniProt Q8NB16)
Experiment: KINOMEscan binding assay, human MLKL (full length)
Details: KINOMEscan, Table 21; read-out: Human MLKL (full-length) (KD)
Protocol: Binding affinity of the test compounds for human MLKL (full length), mouse MLKL (full length), human RIPK1 and human RIPK3 was determined using the KINOMEscan™ technology developed by DiscoverX (USA; http://www.discoverx.com). The assay was conducted according to manufacturer instructions.
Kinase assays. For most assays, kinase-tagged T7 phage strains were grown in parallel in 24-well blocks in an E. coli host derived from the BL21 strain. E. coli were grown to log-phase and infected with T7 phage from a frozen stock (multiplicity of infection=0.4) and incubated with shaking at 32° C. until lysis (90-150 minutes). The lysates were centrifuged (6,000×g) and filtered (0.2 μm) to remove cell debris. The remaining kinases were produced in HEK-293 cells and subsequently tagged with DNA for qPCR detection. […] The liganded beads were blocked with excess biotin and washed with blocking buffer (SeaBlock (Pierce), 1% BSA, 0.05% Tween 20, 1 mM DTT) to remove unbound ligand and to reduce non-specific phage binding. […] All reactions were performed in polypropylene 384-well plates in a final volume of 20 μL. […] The kinase concentration in the eluates was measured by qPCR.
An 11-point 3-fold serial dilution of each test compound was prepared in 100% DMSO at 100× final test concentration and subsequently diluted to 1× in the assay (final DMSO concentration=1%). Most Kos were determined using a compound top concentration=30,000 nM.
KD for each test compound was calculated with a standard dose-response curve using the Hill equation (equation (1)): […]
The Hill Slope was set to −1.
Curves were fitted using a non-linear least square fit with the Levenberg-Marquardt algorithm.

human MLKL (full length), sequence (Q8NB16 whole entry): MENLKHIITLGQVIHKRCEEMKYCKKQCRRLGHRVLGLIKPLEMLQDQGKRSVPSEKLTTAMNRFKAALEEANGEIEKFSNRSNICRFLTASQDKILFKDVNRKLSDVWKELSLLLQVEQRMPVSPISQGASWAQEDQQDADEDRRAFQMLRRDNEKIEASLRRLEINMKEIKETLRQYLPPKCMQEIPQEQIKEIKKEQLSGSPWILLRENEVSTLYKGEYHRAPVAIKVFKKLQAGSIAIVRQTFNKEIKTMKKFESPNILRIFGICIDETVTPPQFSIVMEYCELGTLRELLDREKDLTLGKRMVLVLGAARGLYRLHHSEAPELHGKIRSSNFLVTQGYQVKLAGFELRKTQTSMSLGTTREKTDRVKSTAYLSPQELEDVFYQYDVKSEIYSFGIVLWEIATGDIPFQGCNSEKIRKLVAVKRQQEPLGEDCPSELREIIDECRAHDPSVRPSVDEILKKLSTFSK

Kd [nM] | SMILES
< 1 | COc1ccc([C@H](C)Oc2cc(-c3nn(C)c4c(-c5cnn(C6CCOCC6)c5)cnc(N)c34)ccc2NS(=O)(=O)C(F)F)cc1 [Compound 129, (S)-N-(4-(4-amino-1-methyl-7-(1-(tetrahydro-2H-pyran-4-yl)-1H-pyrazol-4-yl)-1H-pyrazolo[4,3-c]pyridin-3-yl)-2-(1-(4-methoxy-phenyl)ethoxy)phenyl)-1,1-difluoromethane-sulfonamide]
< 1 | Cn1nc(-c2ccc(NS(=O)(=O)C(F)F)c(OCc3ccc(F)cc3)c2)c2c(N)ncc(-c3ccncc3)c21 [Compound 14, N-(4-(4-amino-1-methyl-7-(pyridin-4-yl)-1H-pyrazolo[4,3-c]pyridin-3-yl)-2-((4-fluoro-benzyl)oxy)phenyl)-1,1-difluoromethane-sulfonamide]

Same assay, conditions: hMLKL, Table 25; read-out: MLKL (KD)

Kd [nM] | SMILES
< 10 | CN[C@@H](C)C(=O)N[C@H](C(=O)N1C[C@H](NC(=O)COCCn2cc(-c3cnc(N)c4c(-c5ccc(NS(=O)(=O)C(F)F)c(O[C@@H](C)c6ccc(F)cc6)c5)nn(C)c34)cn2)C[C@H]1C(=O)Nc1c(F)cccc1F)C(C)(C)C [Compound 1089, (2S)-4-{2-[2-(4-{4-amino-3-[4-(difluoromethanesulfonamido)-3-[(1S)-1-(4-fluorophenyl)ethoxy]phenyl]-1-methyl-1H-pyrazolo[4,3-c]pyridin-7-yl}-1H-pyrazol-1-yl)ethoxy]acetamido}-N-(2,6-difluorophenyl)-1-[(2S)-3,3-dimethyl-2-[(2S)-2-(methylamino)propanamido]butanoyl]pyrrolidine-2-carboxamide]
< 10 | C[C@H](Oc1cc(-c2nn(C)c3c(-c4cnn(C5CCN(C(=O)CCC6CCN(c7cccc8c7C(=O)N(C7CCC(=O)N(C)C7=O)C8=O)CC6)CC5)c4)cnc(N)c23)ccc1NS(=O)(=O)C(F)F)c1ccc(F)cc1 (stereo partly drawn) [Compound 1141, N-[4-(4-amino-1-methyl-7-{1-[1-(3-{1-[2-(1-methyl-2,6-dioxopiperidin-3-yl)-1,3-dioxo-2,3-dihydro-1H-isoindol-4-yl]piperidin-4-yl}propanoyl)piperidin-4-yl]-1H-pyrazol-4-yl}-1H-pyrazolo[4,3-c]pyridin-3-yl)-2-[(1S)-1-(4-fluorophenyl)ethoxy]phenyl]-1,1-difluoromethanesulfonamide]
10 to 1000 | Cc1ncsc1-c1ccc(CNC(=O)[C@@H]2C[C@@H](O)CN2C(=O)[C@@H](NC(=O)c2ccc(OCCn3cc(-c4cnc(N)c5c(-c6ccc(NS(=O)(=O)C(F)F)c(O[C@@H](C)c7ccc(F)cc7)c6)nn(C)c45)cn3)cc2)C(C)(C)C)cc1 [Compound 1037, (2S,4R)-1-[(2S)-2-({4-[2-(4-{4-amino-3-[4-(difluoromethanesulfonamido)-3-[(1S)-1-(4-fluorophenyl)ethoxy]phenyl]-1-methyl-1H-pyrazolo[4,3-c]pyridin-7-yl}-1H-pyrazol-1-yl)ethoxy]phenyl}formamido)-3,3-dimethylbutanoyl]-4-hydroxy-N-{[4-(4-methyl-1,3-thiazol-5-yl)phenyl]methyl}pyrrolidine-2-carboxamide]
< 10 | COc1ccc(C(=O)N2CCC(n3cc(-c4cnc(N)c5c(-c6ccc(NS(=O)(=O)C(F)F)c(O[C@@H](C)c7ccc(F)cc7)c6)nn(C)c45)cn3)CC2)cc1N1CCC(=O)NC1=O [Compound 1092, N-{4-[4-amino-7-(1-{1-[3-(2,4-dioxo-1,3-diazinan-1-yl)-4-methoxybenzoyl]piperidin-4-yl}-1H-pyrazol-4-yl)-1-methyl-1H-pyrazolo[4,3-c]pyridin-3-yl]-2-[(1S)-1-(4-fluorophenyl)ethoxy]phenyl}-1,1-difluoromethanesulfonamide]
< 10 | Cc1ncsc1-c1ccc(CNC(=O)[C@@H]2C[C@@H](O)CN2C(=O)[C@@H](NC(=O)CCN2CCC(C#Cc3cnc(N)c4c(-c5ccc(NS(=O)(=O)C(F)F)c(O[C@@H](C)c6ccc(F)cc6)c5)nn(C)c34)CC2)C(C)(C)C)cc1 [Compound 1024, (2S,4R)-1-[(2S)-2-{3-[4-(2-{4-amino-3-[4-(difluoromethanesulfonamido)-3-[(1S)-1-(4-fluorophenyl)ethoxy]phenyl]-1-methyl-1H-pyrazolo[4,3-c]pyridin-7-yl}ethynyl)piperidin-1-yl]propanamido}-3,3-dimethylbutanoyl]-4-hydroxy-N-{[4-(4-methyl-1,3-thiazol-5-yl)phenyl]methyl}pyrrolidine-2-carboxamide]
< 10 | CN[C@@H](C)C(=O)N[C@H](C(=O)N1C[C@H](NC(=O)CCCCn2cc(-c3cnc(N)c4c(-c5ccc(NS(=O)(=O)C(F)F)c(O[C@@H](C)c6ccc(F)cc6)c5)nn(C)c34)cn2)C[C@H]1C(=O)Nc1c(F)cccc1F)C(C)(C)C [Compound 1080, (2S)-4-[5-(4-{4-amino-3-[4-(difluoromethanesulfonamido)-3-[(1S)-1-(4-fluorophenyl)ethoxy]phenyl]-1-methyl-1H-pyrazolo[4,3-c]pyridin-7-yl}-1H-pyrazol-1-yl)pentanamido]-N-(2,6-difluorophenyl)-1-[(2S)-3,3-dimethyl-2-[(2S)-2-(methylamino)propanamido]butanoyl]pyrrolidine-2-carboxamide]
10 to 1000 | Cc1ncsc1-c1ccc(CNC(=O)[C@@H]2C[C@@H](O)CN2C(=O)[C@@H](NC(=O)C2(F)CC2)C(C)(C)C)c(OCCCCCCCCCn2cc(-c3cnc(N)c4c(-c5ccc(NS(=O)(=O)C(F)F)c(O[C@@H](C)c6ccc(F)cc6)c5)nn(C)c34)cn2)c1 [Compound 1138, (2S,4R)—N-[(2-{[9-(4-{4-amino-3-[4-(difluoromethanesulfonamido)-3-[(1S)-1-(4-fluorophenyl)ethoxy]phenyl]-1-methyl-1H-pyrazolo[4,3-c]pyridin-7-yl}-1H-pyrazol-1-yl)nonyl]oxy}-4-(4-methyl-1,3-thiazol-5-yl)phenyl)methyl]-1-[(2S)-2-[(1-fluorocyclopropyl) formamido]-3,3-dimethylbutanoyl]-4-hydroxypyrrolidine-2-carboxamide]
< 10 | C[C@H](Oc1cc(-c2nn(C)c3c(-c4cnn(C5CCN(CCN6CCCC6COc6cccc7c6C(=O)N(C6CCC(=O)NC6=O)C7=O)CC5)c4)cnc(N)c23)ccc1NS(=O)(=O)C(F)F)c1ccc(F)cc1 (stereo partly drawn) [Compound 1120, N-(4-{4-amino-7-[1-(1-{2-[2-({[2-(2,6-dioxopiperidin-3-yl)-1,3-dioxo-2,3-dihydro-1H-isoindol-4-yl]oxy}methyl)pyrrolidin-1-yl]ethyl}piperidin-4-yl)-1H-pyrazol-4-yl]-1-methyl-1H-pyrazolo[4,3-c]pyridin-3-yl}-2-[(1S)-1-(4-fluorophenyl)ethoxy]phenyl)-1,1-difluoromethanesulfonamide]
< 10 | Cc1ncsc1-c1ccc(CNC(=O)[C@@H]2C[C@@H](O)CN2C(=O)[C@@H](NC(=O)CCCCOC(=O)c2ccc(-c3cnc(N)c4c(-c5ccc(NS(=O)(=O)C(F)F)c(O[C@@H](C)c6ccc(F)cc6)c5)nn(C)c34)cn2)C(C)(C)C)cc1 [Compound 1065, 4-{[(2S)-1-[(2S,4R)-4-hydroxy-2-({[4-(4-methyl-1,3-thiazol-5-yl)phenyl]methyl}carbamoyl)pyrrolidin-1-yl]-3,3-dimethyl-1-oxobutan-2-yl]carbamoyl}butyl 5-{4-amino-3-[4-(difluoromethanesulfonamido)-3-[(1S)-1-(4-fluorophenyl)ethoxy]phenyl]-1-methyl-1H-pyrazolo[4,3-c]pyridin-7-yl}pyridine-2-carboxylate]
